Data taken from ChEMBL document CHEMBL4825680, “Structure-based discovery of potent and selective small-molecule inhibitors targeting signal transducer and activator of transcription 3 (STAT3)” (Eur J Med Chem, 2021).

Assays:
MGC-803 = assay: Antiproliferative activity against human MGC-803 cells; type: functional, cell-based
MDA-MB-231 = assay: Antiproliferative activity against human MDA-MB-231 cells; type: functional, cell-based
A549 = assay: Antiproliferative activity against human A549 cells; type: functional, cell-based
[1] = Antitumor activity against patient-derived breast cancer cells xenografted in NOD/SCID mouse assessed as tumor growth inhibition at 15 mg/kg, ip administered once daily for 20 days; settings: Homo sapiens, Breast cancer cell line, 480 h, read-out: TGI
[2] = Toxicity in NOD/SCID mouse xenografted with patient-derived breast cancer cells assessed as change in body weight at 5 to 15 mg/kg, ip administered once daily for 20 days; settings: in vivo, 480 h

| SMILES | IC50 (MGC-803) [µM] | IC50 (MDA-MB-231) [µM] | IC50 (A549) [µM] | inhibition in vivo at 15 mg/kg [1] [%] | Activity [2] |
| --- | --- | --- | --- | --- | --- |
| CCOC(=O)COc1ccc2c(C(=O)Nc3ccc(C4CCCCC4)cc3)cc(-c3ccccc3)nc2c1 | > 100 | > 100 | > 100 |  |  |
| COc1ccn2c(CC(=O)Nc3ccc4c(c3)S(=O)(=O)C=C4)c(-c3ccc(F)cc3)nc2c1 | 0.9 | 5.1 | 1.3 |  |  |
| COc1ccc2c(C(=O)Nc3ccc(Cl)cc3)cc(-c3ccccc3)nc2c1 | 50.4 | > 100 | > 100 |  |  |
| COc1ccc2c(C(=O)Nc3ccc(Br)cc3)cc(-c3ccccc3)nc2c1 | 15.5 | 25.5 | 21.4 |  |  |
| O=C(Nc1ccc(C2CCCCC2)cc1)c1cc(-c2ccccc2)nc2ccccc12 | 5.9 | 10 | 5.8 |  |  |
| COc1ccc2c(C(=O)Nc3ccc(-c4cc5ccccc5o4)cc3)cc(-c3ccccc3)nc2c1 | 4.8 | 5.3 | 4.3 |  |  |
| O=C(NCc1ccc(C2CCCCC2)cc1)c1cc(-c2ccccc2)nc2ccccc12 | 20.1 | > 100 | > 100 |  |  |
| O=C(Cc1c(-c2ccccc2)nc2ccc(Br)cn12)Nc1ccc2c(c1)S(=O)(=O)C=C2 | 1.5 | 2 | 0.8 |  |  |
| COc1ccc2c(C(=O)Nc3ccc(-c4cccs4)cc3)cc(-c3ccccc3)nc2c1 | 15 | 10.8 | 15 |  |  |
| CN(CC(=O)N(Cc1ccc(C2CCCCC2)cc1)c1ccc(C(=O)O)c(O)c1)S(=O)(=O)c1c(F)c(F)c(F)c(F)c1F | 5.6 | 2 | 5 | 63.6 | Non-Toxic |
| COc1ccn2c(CC(=O)Nc3ccc(-c4ccco4)cc3)c(-c3ccccc3)nc2c1 | 2.5 | 10 | 6.6 |  |  |
| COc1ccn2c(CC(=O)Nc3ccc4c(c3)S(=O)(=O)C=C4)c(-c3ccc4ccccc4c3)nc2c1 | 1.5 | 1.4 | 1 |  |  |
| COc1ccc(NC(=O)c2cc(-c3ccccc3)nc3cc(OC)ccc23)cc1 | > 100 | > 100 | > 100 |  |  |
| COc1ccc2c(C(=O)Nc3ccc(-c4ccc(SC)cc4)cc3)cc(-c3ccccc3)nc2c1 | 15.6 | 20.2 | 15.6 |  |  |
| O=C(NCc1ccc(C2CCCCC2)cc1)c1cc(-c2ccccc2)nc2cc(O)ccc12 | 14.6 | 50 | 16.6 |  |  |
| O=C(Cc1c(-c2ccc([N+](=O)[O-])cc2)nc2ccccn12)Nc1ccc2c(c1)S(=O)(=O)C=C2 | 5.2 | 6.5 | 5.4 |  |  |
| COc1ccc2c(C(=O)Nc3ccc(-c4ccco4)cc3)cc(-c3ccccc3)nc2c1 | 2.1 | 10.3 | 5.5 |  |  |
| COc1ccc2c(C(=O)Nc3ccc(C)cc3)cc(-c3ccccc3)nc2c1 | > 100 | > 100 | > 100 |  |  |
| COc1ccc2c(C(=O)Nc3ccc(-c4ccc5cc[nH]c5c4)cc3)cc(-c3ccccc3)nc2c1 | > 100 | > 100 | > 100 |  |  |
| COc1cccn2c(CC(=O)Nc3ccc4c(c3)S(=O)(=O)C=C4)c(-c3ccccc3)nc12 | 1.7 | 2.2 | 1 |  |  |
| O=C(Nc1ccc(C2CCCCC2)cc1)c1cc(-c2ccccc2)nc2cc(O)ccc12 | > 100 | > 100 | > 100 |  |  |
| COc1ccc2c(C(=O)Nc3ccc(C4CCCCC4)cc3)cc(-c3ccccc3)nc2c1 | 4.9 | 5.9 | 4.9 |  |  |
| COc1ccc2c(C(=O)Nc3ccc(-c4ccc(F)cc4)cc3)cc(-c3ccccc3)nc2c1 | 40.4 | 11.2 | 29.9 |  |  |
| O=C(O)COc1ccc2c(C(=O)Nc3ccc(C4CCCCC4)cc3)cc(-c3ccccc3)nc2c1 | > 100 | > 100 | > 100 |  |  |
| Cc1ccc(-c2nc3ccccn3c2CC(=O)Nc2ccc3c(c2)S(=O)(=O)C=C3)cc1 | 2.7 | 4.1 | 5.5 |  |  |
| O=C(O)COc1ccc2c(C(=O)NCc3ccc(C4CCCCC4)cc3)cc(-c3ccccc3)nc2c1 | > 100 | > 100 | > 100 |  |  |
| Cc1ccn2c(CC(=O)Nc3ccc4c(c3)S(=O)(=O)C=C4)c(-c3ccccc3)nc2c1 | 1 | 1.6 | 0.7 |  |  |
| Cc1ccc2nc(-c3ccc(Cl)cc3)c(CC(=O)Nc3ccc4c(c3)S(=O)(=O)C=C4)n2c1 | 1.6 | 2 | 1.2 |  |  |
